Columns and labels:
[1] = type: physicochemical
From the text: Vorzugsweise wird jedoch die reine, nicht derivatisierte Sinapinsäure und deren Salze eingesetzt. […] Die entstehenden Abbauprodukte bilden gefärbte übelriechende Substanzen, die auch zu Hautreizungen führen können. Es ist daher ein weiterer Gegenstand der Erfindung Sinapinsäure und/oder ihre Derivate in verkapselter, komplexierter oder adsorbierter Form in den Zubereitungen einzusetzen. Dabei bietet sich insbesondere die Verkapselung in Liposomen oder einer hydrophoben Matrix, die Komplexierung in Cyclodextrinen und die Adsorption an hydrophobe Träger an. Bevorzugt wird Sinapinsäure und/oder ihre Derivate in Mikrokapseln eingearbeitet.

[2] = tested on: zellulärer DNA; experiment: UV-induced thymine dimer formation in cellular DNA; type: cell-based; settings: induced by UV radiation; topical application
From the text: Es konnte festgestellt werden, dass durch die topische Anwendung von Sinapinsäure und ihren Derivaten insbesondere die Bildung von Thymin-Dimeren in zellulärer DNA, die durch UV-Strahlung induziert wird, vermindert wird. Dadurch kann die Anzahl der Mutationen gesenkt und eine Stärkung des dermalen Immunsystems bewirkt werden. Ein weiterer Gegenstand der Erfindung ist daher die Verwendung von Sinapinsäure und/oder Sinapinsäurederivaten zur Herstellung von kosmetischen und/oder dermopharmazeutischen Zubereitungen zum Schutz vor Thymin-Dimerbildung nach Einfluß von UV-Strahlung in Hautzellen und zur Verbesserung des DNA-Reparaturmechanismus in Hautzellen.

[3] = tested on: Adenosindinukleotide (ADN) der Mitochondrien; experiment: Protection of mitochondrial genome against oxidative stress; type: cell-based; settings: damage caused by oxidative stress
From the text: Sie vermindern die Schädigung des mitochondrialen Genoms, die durch oxidativen Stress bewirkt wird und führen dadurch zu einer Verzögerung der Alterung von Mitochondrien und zu einer Verbesserung des Energiepotentials der Zellen. Somit können Sinapinsäure und ihre Derivate über die Verbesserung der mitochondrialen Funktion und Energiebilanz zum Schutz der Haut gegen Alterung und Faltenbildung, zur Steigerung effektiver Reparaturmechanismen durch Alterung und Sonneneinstrahlung geschädigter Haut und zur verbesserten Wundheilung der Haut entscheidend beitragen.

[4] = tested on: Neuropeptiden wie beispielsweise Substanz P oder CGRP; experiment: Release of neuropeptides; type: cell-based
From the text: Die Haut ist ein Gewebe, das mit einer Vielzahl von Nervenfasern durchzogen ist, deren Zellkörper in den dorsalen Ganglien (dorsal root ganglia - DRG) zusammenführen. Neurone des Typs Aδ und C erreichen mit ihren Zellen die Dermis und auch die Epidermis. Typ C Neurone sind für die Detektion von noziceptiven Stimuli verantwortlich. Keratinocyten und Nervenfasern können eine Vielzahl unterschiedlicher Cytokine produzieren, die unter dem Einfluß externer Stimuli ausgeschieden werden und die sensorischen Enden der Nervenfasern stimulieren. Diese setzen dann wiederum Peptide frei, die die metabolische Aktivität der Keratinocyten über Messenger-Moleküle beeinflussen. Auf diese Weise kommunizieren sensorische Nerven und Keratinocyten kontinuierlich miteinander. Eine Disregulation dieses physiologischen Gleichgewichts erklärt viele pathologische Erscheinungen von empfindlicher Haut oder beispielsweise Psoriasis. Es konnte nun festgestellt werden, dass Sinapinsäure und ihre Derivate insbesondere empfindliche Haut dadurch beruhigen, dass sie die Freisetzung von Neuropeptiden wie beispielsweise Substanz P oder CGRP herabsetzen.

[5] = tested on: dermaler Fibroblasten; experiment: Collagen synthesis of dermal fibroblasts; type: cell-based
From the text: Die menschliche Haut enthält vorwiegend zwei Typen von Collagen: Collagen Typ I und Collagen Typ III, synthetisiert durch dermale Fibroblasten. Beide Collagentypen stellen wesentliche Strukturkomponenten der extrazellulären Matrix des Bindegewebes dar und tragen in hohem Maße zur Struktur der gesamten Haut bei. Ein wichtiges Kennzeichen alternder Haut ist die Abnahme des Collagengehaltes in der Dermis und eine damit verbundene Abnahme der Elastizität, die zusätzlich durch eine Verschlechterung der Fibroblastenfunktion durch nicht enzymatische Glycosylierung (Glycation) und oxidativen Abbau bewirkt wird. Es wurde nun festgestellt, dass Sinapinsäure und ihre Derivate die Collagensynthese dermaler Fibroblasten stimulieren und auf diese Weise die chronologische und die UV-Strahlungsinduzierte Hautalterung verzögert werden kann. Die Verwendung von Sinapinsäure und/oder Sinapinsäurederivaten zur Herstellung kosmetischer und/oder dermopharmazeutischer Zubereitungen zur Stimulation der Collagensynthese in dermalen Fibroblasten ist daher ein weiterer Gegenstand der Erfindung.

[6] = tested on: Carrageenan-induzierten Rattenpfotenödem-Modell; settings: after injection into the paw; Chawla AS et al 1993; cited from earlier work
[7] = in Ethanol; cited from earlier work

## COc1cc(/C=C/C(=O)O)cc(OC)c1O [Sinapinsäure, 4-Hydroxy-3,5-Dimethoxy-Zimtsäure]
[1]
  chemische Stabilität: leicht zersetzt
[2]
  Bildung von Thymin-Dimeren in zellulärer DNA: vermindert
[3]
  Wirkung auf Adenosindinukleotide (ADN) der Mitochondrien: schützende Wirkung
[4]
  Freisetzung von Neuropeptiden wie beispielsweise Substanz P oder CGRP: herabsetzen
[5]
  Collagensynthese dermaler Fibroblasten: stimulieren
[6]
  anti-inflammatorische Wirkung: anti-inflammatorische Wirkung
[7]
  UV-Absorptionsmaximum: 323 nm
